# Test results: article PMC3045627 (Journal of medicinal chemistry, 2010)
# Where two headings read alike, the source gives them in different places.
# Columns and labels:
# [1] = target: human farnesyltransferase (hFTase) (Homo sapiens, UniProt P49354+P49356); experiment: In vitro hFTase inhibition: incorporation of [3H]FPP into recombinant H-Ras-CVLS; format: biochemical; settings: for selectivity (ratio of GGTase-I to FTase IC50s): GGTase-I IC50 / hFTase IC50; for fold improvement in hFTase inhibitory activity relative to 1az: relative to parent 1az
# [2] = system: farnesylation of H-Ras in oncogenic H-Ras-transformed NIH3T3 cells; experiment: Whole cell inhibition of farnesylation; format: cell-based; settings: Mus musculus
structure (smiles),measurement,setting,value
Cn1cnc(S(=O)(=O)N(CCN(Cc2cncn2C)c2ccc(C#N)cc2)Cc2ccncc2)c1 [1af],selectivity (ratio of GGTase-I to FTase IC50s),[1],>139
"Cn1cnc(S(=O)(=O)N(CCN(Cc2cncn2C)c2ccc(C#N)cc2)Cc2ccsc2)c1 [1ai, [N-(Thiophen-3-ylmethyl), N-{2-[(4-Cyanophenyl)-(3-methyl-3H-imidazol-4-ylmethyl)-amino]-ethyl}] 1-Methyl-1H-imidazole-4-sulfonamide]",times as potent against hFTase as isomeric 1ak,[1]; relative to 1ak,more than 34 times
"Cc1c(CN(CCN(Cc2cncn2C)c2ccc(C#N)cc2)S(=O)(=O)c2cn(C)cn2)cnn1C [1an, [N-(1,3,5-Trimethyl-1H-pyrazol-4-ylmethyl), N-{2-[(4-Cyanophenyl)-(3-methyl-3H-imidazol-4-ylmethyl)-amino]-ethyl}] 1-Methyl-1H-imidazole-4-sulfonamide]",selectivity (ratio of GGTase-I to FTase IC50s),[1],>1.9
Cn1cnc(S(=O)(=O)N(CCN(Cc2cncn2C)c2ccc(C#N)cc2)Cc2ccc(-n3cccc3)cc2)c1 [1av],fold improvement of in vitro hFTase inhibition relative to 1au,[1]; relative to 1au,approximately 4 fold
Cn1cnc(S(=O)(=O)N(CCN(Cc2cncn2C)c2ccc(C#N)cc2)CC2CCCCC2)c1 [1ax],GGTase-I/FTase selectivity,[1]; selectivity for hFTase over GGTase-I,about 9 fold
same,IC50,"[2]; NIH3T3, read-out: processing IC50 (μM) H-Ras",0.1 ± 0.07 µM
same,IC50,"[2]; NIH3T3, read-out: whole cell H-Ras processing IC50",~0.09 µM
Cn1cnc(S(=O)(=O)N(CCN(Cc2cncn2C)c2ccc(C#N)cc2)CC2CCN(C(=O)OC(C)(C)C)CC2)c1 [1ay],fold drop in hFTase inhibition relative to 1ax,[1]; relative to 1ax,> 60 fold
Cn1cnc(S(=O)(=O)N(CCN(Cc2cncn2C)c2ccc(C#N)cc2)CC2CCN(c3ncccn3)CC2)c1 [1az],fold recovery of hFTase activity relative to 1ay,[1]; relative to 1ay,more than 7 fold
"Cn1cnc(S(=O)(=O)N(CCN(Cc2cncn2C)c2ccc(C#N)cc2Cl)CC2CCN(c3ncccn3)CC2)c1 [19a, [N-{2-[(2-Chloro-4-cyanophenyl)-(3-methyl-3H-imidazol-4-ylmethyl)-amino]-ethyl}, N-{N-(2-Pyrimidinyl)-piperidin-4-ylmethyl}] 1-Methyl-1H-imidazole-4-sulfonamide]",selectivity (ratio of GGTase-I to FTase IC50s),[1],>18
"Cn1cnc(S(=O)(=O)N(CCN(Cc2cncn2C)c2ccc(C#N)nc2)CC2CCN(c3ncccn3)CC2)c1 [19b, N-(2-((2-Cyanopyridin-5-yl)((1-methyl-1H-imidazol-5-yl)methyl)-amino)ethyl)-1-methyl-N-((1-(pyrimidin-2-yl)piperidin-4-yl)methyl)-1H-imidazole-4-sulfonamide]",selectivity (ratio of GGTase-I to FTase IC50s),[1],>19
"Cn1cnc(S(=O)(=O)N(CCN(Cc2cncn2C)c2ccc(C#N)c(F)c2)CC2CCN(c3ncccn3)CC2)c1 [19e, [N-{2-[(3-Fluoro-4-cyanophenyl)-(3-methyl-3H-imidazol-4-ylmethyl)-amino]-ethyl}, N-{N-(2-Pyrimidinyl)-piperidin-4-ylmethyl}] 1-Methyl-1H-imidazole-4-sulfonamide]",fold improvement in hFTase inhibitory activity relative to 1az,[1],2 fold
"Cn1cnc(S(=O)(=O)N(CCN(Cc2cncn2C)c2ccc(C#N)cc2F)CC2CCN(c3ncccn3)CC2)c1 [19f, [N-{2-[(2-Fluoro-4-cyanophenyl)-(3-methyl-3H-imidazol-4-ylmethyl)-amino]-ethyl}, N-{N-(2-Pyrimidinyl)-piperidin-4-ylmethyl}] 1-Methyl-1H-imidazole-4-sulfonamide]",fold improvement in hFTase inhibitory activity relative to 1az,[1],approximately 8 fold
Cn1cnc(S(=O)(=O)N(CCCN(Cc2cncn2C)c2ccc(C#N)cc2)Cc2ccccc2)c1 [20a],fold drop in hFTase inhibitory activity relative to 1a,[1]; relative to 1a,> 7 fold
